The record followed here is ChEMBL document CHEMBL3585275, “Glycosyl hydroperoxides: a new class of potential antimalarial agents” (Bioorg Med Chem, 2015).

SMILES strings stand for the structures. Converted amounts (≈) assume the structure as drawn. A value given as a limit tells only on which side of the number the result lay.

Series [1] has as its system Plasmodium falciparum. Description: Antimalarial activity against chloroquine-resistant Plasmodium falciparum W2 infected in human type A-positive red blood cells assessed as parasite growth inhibition after 72 hrs by lactate dehydrogenase assay. The series is classed as functional, organism-based. The note with it: W2, 72 h.
Series [2] relates to Plasmodium falciparum. Description: Antimalarial activity against chloroquine-sensitive Plasmodium falciparum D10 infected in human type A-positive red blood cells assessed as parasite growth inhibition after 72 hrs by lactate dehydrogenase assay. The format is functional, organism-based. The note with it: D10, 72 h.
Series [3] in a line: Inhibition of hemin crystallization at 0.25 to 10 mol equiv after 18 hrs by spectrophotometric analysis. The series is classed as physicochemical.

Usually IC50 stands for the midpoint of a concentration-inhibition curve. With `C[C@@H]1CC[C@H]2[C@@H](C)C(=O)O[C@@H]3O[C@@]4(C)CC[C@@H]1[C@]32OO4` [ARTEMISININ], the IC50 came to 0.00824 µg/mL (≈ 0.0292 µM) in the series on Plasmodium falciparum [1] and 0.0121 µg/mL (≈ 0.043 µM) with Plasmodium falciparum [2].
For the molecule `CCCCCCCCCCCCOC[C@H]1O[C@H](OO)C[C@@H](OCCCCCCCCCCCC)[C@H]1OCCCCCCCCCCCC`, the IC50 in the series on Plasmodium falciparum [1] and with Plasmodium falciparum [2] was > 5 µg/mL in each case. Further, in series [3], the “inhibition (INH)” value is on record as “Not Active”.
For the molecule `CCCCCCCCCCCCCCCCCCOC[C@H]1O[C@H](OO)C[C@@H](OCCCCCCCCCCCCCCCCCC)[C@H]1OCCCCCCCCCCCCCCCCCC`, the IC50 in the series with Plasmodium falciparum [1] and in the series on Plasmodium falciparum [2] was > 5 µg/mL each time. In addition, the “inhibition (INH)” value in series [3] is given as “Not Active”.
Regarding `CCCCCCCOC[C@H]1O[C@H](OO)C[C@@H](OCCCCCCC)[C@H]1OCCCCCCC`, the IC50 in the series on Plasmodium falciparum [1] and with Plasmodium falciparum [2] was > 5 µg/mL throughout. Further, the “inhibition (INH)” value in series [3] was “Not Active”.
In the case of `CCCCCCCCCCCCCCCCCC(=O)O[C@@H]1C[C@@H](OO)O[C@H]1[C@@H](O)CO`, the IC50 in the series on Plasmodium falciparum [1] and in the series with Plasmodium falciparum [2] was > 5 µg/mL throughout. The “inhibition (INH)” value in series [3] was “Not Active”.
For `CCN(CC)CCCC(C)Nc1ccnc2cc(Cl)ccc12` (stereo not drawn) [CHLOROQUINE], the “inhibition (INH)” value in series [3] is “Active”.
On to `CCCCCCCO[C@H]1C[C@@H](OO)OC[C@H]1OCCCCCCC`, for which the figures for the IC50 in the series on Plasmodium falciparum [1] and in the series with Plasmodium falciparum [2] were 1.69 µg/mL (≈ 4.88 µM) and 1.42 µg/mL (≈ 4.09 µM), respectively. Besides, the “inhibition (INH)” value in series [3] is “Active”.
